Like-named read-outs stand apart in the source and are kept apart here.
System: Bordetella pertussis
Assay: microbe, parasite or virus in culture
Assay type: cell-based
Experimental: Cells were harvested by centrifugation, washed twice with NaCl 0.9% (w/v), and resuspended in fresh medium (de novo minimal CDM; see composition in Table 1) at a theoretical OD650 nm of 0.5, as calculated from the OD650 nm of the culture before harvest. 20 μl of this cell suspension were used to inoculate each well of a 96-well microtiter plate filled with 180 μl of de novo minimal CDM. Only the inner wells of the plate were used for cultures, in order to minimize evaporation, and two controls were included, in which the supplement solution was replaced with water.
The plate was then incubated for 7 days at 35° C. in a Biotek Synergy H1 reader with constant shaking, and growth was automatically monitored every 10 minutes as OD650 nm.
The relative growth yield and growth rate for each supplement was then averaged over the three independent repeats, and the standard deviation was calculated.

[1] = 2 mM in medium, first generation, relative to water controls
[2] = 2 mM in medium, max OD650 nm relative to water controls
[3] = 20 mM in medium, first generation, relative to water controls
[4] = 20 mM in medium, max OD650 nm relative to water controls
[5] = Bordetella pertussis, 168 h, read-out: Relative yield Average, 0.1 mg/L in medium, max OD650 nm relative to water controls
[6] = Bordetella pertussis, 168 h, read-out: Relative yield Average, 1 mg/L in medium, max OD650 nm relative to water controls
[7] = Bordetella pertussis, read-out: Relative growth rate Average, 0.1 mg/L in medium, first generation, relative to water controls
[8] = Bordetella pertussis, read-out: Relative growth rate Average, 1 mg/L in medium, first generation, relative to water controls
[9] = Bordetella pertussis, 168 h, read-out: Relative yield Average, 2 mM in medium, max OD650 nm relative to water controls
[10] = Bordetella pertussis, read-out: Relative growth rate Average, 2 mM in medium, first generation, relative to water controls
[11] = Bordetella pertussis, read-out: Relative growth rate Average, 20 mM in medium, first generation, relative to water controls

CC(O)CC(=O)[O-].[Na+] (racemic) [Sodium DL-beta-hydroxybutyrate]
Relative growth rate Average [1]: 100.28%
Relative yield Average [2]: 96.73%
Relative growth rate Average [3]: 94.37%
Relative yield Average [4]: 145.46%

Nc1ncnc2nc[nH]c12 [Adenine]
activity at 0.1 µg/mL [5]: 95 to 105%
activity at 1 µg/mL [6]: 95 to 105%
activity at 0.1 µg/mL [7]: 95 to 105%
activity at 1 µg/mL [8]: 95 to 105%

O=C(O)CCCC[C@@H]1SC[C@@H]2NC(=O)N[C@@H]21 [Biotin]
activity at 0.02 µg/mL (Bordetella pertussis, read-out: Relative growth rate Average, 0.02 mg/L in medium, first generation, relative to water controls): > 105%
activity at 0.2 µg/mL (Bordetella pertussis, read-out: Relative growth rate Average, 0.2 mg/L in medium, first generation, relative to water controls): 95 to 105%

O.O.[Ca+2].[Cl-].[Cl-] [CaCl2•2H2O]
Relative growth rate Average (0.3 mM in medium, first generation, relative to water controls): 107.49%
Relative yield Average (0.3 mM in medium, max OD650 nm relative to water controls): 104.03%
Relative growth rate Average (3 mM in medium, first generation, relative to water controls): 92.03%
Relative yield Average (3 mM in medium, max OD650 nm relative to water controls): 107.34%

C[N+](C)(C)CCO.[Cl-] [Choline chloride]
activity at 0.6 µg/mL (Bordetella pertussis, 168 h, read-out: Relative yield Average, 0.6 mg/L in medium, max OD650 nm relative to water controls): 95 to 105%
activity at 6 µg/mL (Bordetella pertussis, 168 h, read-out: Relative yield Average, 6 mg/L in medium, max OD650 nm relative to water controls): 95 to 105%
activity at 0.6 µg/mL (Bordetella pertussis, read-out: Relative growth rate Average, 0.6 mg/L in medium, first generation, relative to water controls): 95 to 105%
activity at 6 µg/mL (Bordetella pertussis, read-out: Relative growth rate Average, 6 mg/L in medium, first generation, relative to water controls): 95 to 105%

O=C(O)CC(O)(CC(=O)O)C(=O)O [Citric acid monohydrate]
activity at 2000 µM [9]: < 95%

O.O.O.O.O.O.[Cl-].[Cl-].[Co+2] [CoCl2•6H2O]
Relative growth rate Average (0.42 mg/L in medium, first generation, relative to water controls): 93.44%
Relative yield Average (0.42 mg/L in medium, max OD650 nm relative to water controls): 103.04%
Relative growth rate Average (4.2 mg/L in medium, first generation, relative to water controls): 46.12%
Relative yield Average (4.2 mg/L in medium, max OD650 nm relative to water controls): 149.59%

O=C([O-])/C=C/C(=O)[O-].[Na+].[Na+] [Disodium Fumarate]
Relative growth rate Average [1]: 97.72%
Relative yield Average [2]: 107.14%
Relative growth rate Average [3]: 86.72%
Relative yield Average [4]: 171.26%

Nc1nc(=O)c2nc(CNc3ccc(C(=O)N[C@@H](CCC(=O)O)C(=O)O)cc3)cnc2[nH]1 [Folate]
activity at 0.12 µg/mL (Bordetella pertussis, 168 h, read-out: Relative yield Average, 0.12 mg/L in medium, max OD650 nm relative to water controls): > 105%
activity at 1.2 µg/mL (Bordetella pertussis, 168 h, read-out: Relative yield Average, 1.2 mg/L in medium, max OD650 nm relative to water controls): 95 to 105%
activity at 0.12 µg/mL (Bordetella pertussis, read-out: Relative growth rate Average, 0.12 mg/L in medium, first generation, relative to water controls): 95 to 105%
activity at 1.2 µg/mL (Bordetella pertussis, read-out: Relative growth rate Average, 1.2 mg/L in medium, first generation, relative to water controls): 95 to 105%

OCC(O)CO [Glycerol]
activity at 2000 µM [9]: 95 to 105%
activity at 20000 µM (Bordetella pertussis, 168 h, read-out: Relative yield Average, 20 mM in medium, max OD650 nm relative to water controls): > 105%
activity at 2000 µM [10]: 95 to 105%
activity at 20000 µM [11]: < 95%

NCC(=O)O [Glycine]
activity at 2000 µM [9]: 95 to 105%
activity at 2000 µM [10]: > 105%
activity at 20000 µM [11]: > 105%

Nc1nc2nc[nH]c2c(=O)[nH]1 [Guanine]
activity at 0.1 µg/mL [5]: 95 to 105%
activity at 1 µg/mL [6]: 95 to 105%
activity at 0.1 µg/mL [7]: 95 to 105%
activity at 1 µg/mL [8]: 95 to 105%

O[C@H]1[C@H](O)[C@@H](O)[C@H](O)[C@@H](O)[C@H]1O [Inositol]
activity at 2.8 µg/mL (Bordetella pertussis, 168 h, read-out: Relative yield Average, 2.8 mg/L in medium, max OD650 nm relative to water controls): 95 to 105%
activity at 28 µg/mL (Bordetella pertussis, 168 h, read-out: Relative yield Average, 28 mg/L in medium, max OD650 nm relative to water controls): 95 to 105%
activity at 2.8 µg/mL (Bordetella pertussis, read-out: Relative growth rate Average, 2.8 mg/L in medium, first generation, relative to water controls): 95 to 105%
activity at 28 µg/mL (Bordetella pertussis, read-out: Relative growth rate Average, 28 mg/L in medium, first generation, relative to water controls): 95 to 105%

C[C@H](N)C(=O)O [L-Alanine]
activity at 2000 µM [9]: 95 to 105%
activity at 2000 µM [10]: > 105%

N=C(N)NCCC[C@H](N)C(=O)O [L-Arginine]
activity at 2000 µM [9]: > 105%
activity at 2000 µM [10]: > 105%
activity at 20000 µM [11]: > 105%
Effect on growth rate in comparison to a minimally identified medium (no concentration stated): positive effect

NC(=O)C[C@H](N)C(=O)O [L-Asparagine]
activity at 1330 µM (Bordetella pertussis, 168 h, read-out: Relative yield Average, 1.33 mM in medium, max OD650 nm relative to water controls): 95 to 105%
activity at 13300 µM (Bordetella pertussis, 168 h, read-out: Relative yield Average, 13.3 mM in medium, max OD650 nm relative to water controls): < 95%
activity at 1330 µM (Bordetella pertussis, read-out: Relative growth rate Average, 1.33 mM in medium, first generation, relative to water controls): 95 to 105%
activity at 13300 µM (Bordetella pertussis, read-out: Relative growth rate Average, 13.3 mM in medium, first generation, relative to water controls): 95 to 105%

Reference: US20160378909A1, “PROCESS FOR IDENTIFYING CULTURE CONDITIONS FOR A CELL OR ORGANISM” (GLAXOSMITHKLINE BIOLOGICALS SA, priority 2013, published 2016)
